# Data taken from patent publication US20030113330A1, “Methods for treating pulmonary fibrosis” (priority 1999, published 2003).
# Entries after “also recorded” stand apart in the source; their conditions may differ.
# Columns and labels:
# [1] = system: A549 cells; experiment: FAS-induced apoptosis (activating anti-FAS antibody CH-11) in A549 cells, ISEL / nuclear fragmentation; assay type: cell-based, human; conditions: for inhibition of Fas-induced apoptosis of A549 cells: lisinopril 500 ng/ml
# Description: Cell Culture. […] Cells were seeded on 12 mm sterile glass cover slips in 24-well chambers at a density of 20,000 cells per well.
# Fluorescence Detection of Apoptosis. […] J. Physiol. […] In these assays detached cells were retained by centrifugation of the 24-well culture vessels during fixation with 70% ethanol. In situ end-labeling of fragmented DNA (ISEL) was conducted as described in Gorczyka et al., Canc. Res. 53:1945-1951 (1993). Briefly, ethanol was removed by rinsing cover slips in distilled water for at least 10 minutes. […] The sections were rinsed thoroughly five times with Buffer A and three additional times in 0.5 M PBS. Incorporated bio-UTP was detected by incubation for one hour at 37° C. with avidin-rhodamine; the cover slips were then rinsed in distilled water three times and mounted under Fluoromount Solution (Southern Biotechnology Associates, Birmingham, Ala.).
# Spontaneous or stimulated apoptosis was quantitated as described in Uhal et al., Am. J. Physiol. 269:L819-L828 (1995), in the human lung epithelial cell line A549 by fluorescence detection of chromatin condensation and nuclear fragmentation. The human lung epithelial cell line A549 was cultured on glass cover slips as described in Uhal, et al., Am. J. Physiol. 269:L819-L828 (1995). At the end of the test period, detached cells were retained by centrifuging the culture vessel during fixation of cells in 70% ethanol. Fixed cells were incubated for 30 minutes with 5 ug/ml propidium iodide (PI) in PBS containing DNAse-free RNAse; under these conditions, red fluorescence (>570 nm) is specific for DNA. As in Uhal et al., Am. J. Physiol. 269:L819-L828 (1995), apoptotic cells were identified by the presence of discrete nuclear fragments containing condensed chromatin. Human lung A549 cells were cultured for 20 h in the presence of equivalent concentrations (500 ng/ml) of monoclonal antibody CH-11 (FAS mAb), purified IgM fraction of nonimmune mouse immunoglobulins (IgM), monoclonal antibody 5F-7 (mAb2), and monoclonal antibody 5F-9 (mAb3). Apoptotic cells were scored by the nuclear morphology assay discussed above. A significant difference (p<0.01 compared to control (no additives)), was observed between the means±S.E.M. (at least 4 determinations per condition) of the cells exposed to FAS mAb as compared to the control or other antibody treatments as determined by ANOVA and Dunnett's test. […] J. Physiol.
# Ethanol-fixed A549 cells on glass cover slips were subjected to ISEL labeling of fragmented DNA. DNA fragments labeled with biotinylated UTP were detected with rhodamine-conjugated avidin. A549 cells were exposed to either 500 ng/ml anti-FAS antibody (CH-11) under the same conditions as described above or in the presence of 50 ng/ml captopril. […] ISEL-positive A549 cells were quantitated in at least four separate culture vessels exposed to the anti-FAS antibody CH-11 at 500 ng/ml and/or 50 ng/ml captopril.
# A549 cells were exposed to anti-FAS antibody CH-11 as described above, in the presence of 0.005 ng/ml (5 pg/ml) to 50 ng/ml captopril. Inhibition of apoptosis was detected as the decrease in ISEL-positive cells, scored as described above. […] Inhibition of apoptosis was maximal (approximately 85-90%) at 50 ng/ml captopril, a concentration known to be physiologically attainable in humans and to be maximally inhibitory for ACE. See Duchin et al., Clin. Pharmacokinet. 14:241-259 (1988).
# Cell Culture and Detection of Apoptosis. […] Ibarra-Sunga, C. Gidea, E. Ang, S. Deshmukh, G. Chaudhary, J. Baraboutis, G. Filippatos and B. D. Uhal, Angiotensin II induces apoptosis in human and rat alveolar epithelial cells. Am. J. Physiol. 276:L885-L889 (1999)). […] J. Physiol. […] As in the above Examples, the induction of apoptosis was verified by Annexin V binding and generation of DNA strand breaks […]
# [2] = system: primary rat AEC; experiment: Angiotensin II-induced apoptosis in primary rat AEC (nuclear fragmentation, PI); assay type: cell-based; conditions: ANGII 5.0 uM; saralasin 50 ug/ml, lisinopril 500 ng/ml
# Source text: Cell Culture. The human lung adenocarcinoma cell line A549 was obtained from American Type Culture Collection and cultured in Ham's F12 medium supplemented with 10% fetal bovine serum (FBS). Primary alveolar epithelial cells were isolated from adult male Wistar rats as described in Uhal et al., Am. J. Physiol. Suppl. (Oct.) 261:110-117 (1991) and Uhal et al., Am. J. Physiol. 269:L819-L828 (1995). The primary cells were studied at day two of culture, a time at which they are type II cell-like by accepted morphologic and biochemical criteria, see Uhal, Am. J. Physiol. 272:L1031-L1045 (1997). […] J. Physiol. Suppl. (October) 261:110-117 (1991). All cells were seeded in 24-well or 6-well chambers, and all experiments were conducted at subconfluent densities of 80-90% in serum-free Ham's F12 medium. Test reagents were diluted with Ham's F12 medium and were applied for 20 h at 37° C. in a 5% CO2 incubator.
# Detection of Apoptosis. Detection of apoptotic cells with propidium iodide (PI) was conducted as described in Uhal, et al., Am. J. Physiol. 275:L1013-1017 (1998) following digestion of ethanol-fixed cells with DNAse-free RNAse in PBS containing 5 ug/ml PI. Assay of Annexin V binding by flow cytometry was performed essentially as described for human lung fibroblasts in Uhal, et al., Am. J. Physiol. 275:L998-L1005 (1998) after trypsinization of cells from culture vessels. Assay of Caspase-3 activity was performed on viable suspension cultures as reported in Uhal, et al., Am. J. Physiol. 275:L1013-1017 (1998). In all assays, detached cells were retained by centrifugation of the culture vessels during fixation with 70% ethanol, or by retention of culture media and recovery by centrifugation before assay.
# For microscopy, cells were cultured on glass cover slips, incubated with test reagents and fixed with 70% ethanol. The fixed cells were immunolabeled overnight at 4° C. with monoclonal antibodies to cytokeratins 7 and 19 (Chemicon International, Temecula, Calif.), and then for one hour at 37° C. with anti-mouse IgG-rhodamine and DNAse-free RNAse (Boehringer Mannheim, Indianapolis, Ind.) The cover slips were then rinsed in distilled water three times and mounted under Fluoromount Solution (Southern Biotechnology Associates, Birmingham, Ala.) containing 5 ug/ml propidium iodide. Photomicroscopy was performed as described in Uhal, et al., Am. J. Physiol. 275:L1013-1017 (1998).
# Apoptosis in alveolar epithelial cells was quantitated by fluorescence detection of chromatin condensation and nuclear fragmentation in alcohol-fixed cells stained with propidium iodide. See Uhal, et al., Am. J. Physiol. 275:L1013-1017 (1998). […] After 20 h, the culture vessel was centrifuged to retain detached cells and labeled with anticytokeratin antibodies and propidium iodide. […] Double labeling with PI and monoclonal antibodies to cytokeratins 7 and 19 identified cells with both apoptotic nuclear morphology and positive anticytokeratin immunoreactivity.
Structure (SMILES),inhibition of Fas-induced apoptosis of A549 cells [1],inhibition of ANGII-induced apoptosis of primary rat AEC [2],also measured
CCc1nc2c(C)cc(C)nc2n1Cc1ccc(-c2ccccc2-c2nn[nH]n2)cc1 [L158809],could block,could block,
COc1ccc2c(c1OCc1ccccc1)C[C@@H](C(=O)O)N(C(=O)C(c1ccccc1)c1ccccc1)C2 [PD126055],unable to significantly inhibit,unable to significantly inhibit,
C[C@H](CS)C(=O)N1CCC[C@H]1C(=O)O [captopril],,,"effect on FAS-induced apoptotic indexes (morphology, DNA fragmentation, ISEL-positive cells) ([1]; 50 ng/ml captopril with anti-FAS CH-11 500 ng/ml): completely abrogated; also recorded: essentially abolished; IC50 ([1]; Homo sapiens, A549, 20 h, read-out: IC50 of inhibition of FAS-induced apoptosis (ISEL labeling)): 0.07 ng/mL; inhibition at 0.05 µg/mL ([1]; Homo sapiens, A549, read-out: maximal inhibition of apoptosis (decrease in ISEL-positive cells)): 85 to 90%; concentration at which inhibition of FAS-induced ISEL labeling was measurable ([1]; anti-FAS CH-11): 5 pg/mL; effect on basal ISEL labeling ([1]; captopril alone): no significant effect"
NCCCC[C@H](N[C@@H](CCc1ccccc1)C(=O)O)C(=O)N1CCC[C@H]1C(=O)O [lisinopril],significantly inhibited,did not block,"inhibition at 0.5 µg/mL ([1]; Homo sapiens, A549 or primary rat AEC, lisinopril 0.5 μg/ml, saralasin 5 μg/ml, read-out: maximal inhibition of apoptosis in response to either Fas activator): 82%"
CNCC(=O)N[C@@H](CCCN=C(N)N)C(=O)N[C@H](C(=O)N[C@@H](Cc1ccc(O)cc1)C(=O)N[C@H](C(=O)N[C@@H](Cc1cnc[nH]1)C(=O)N1CCC[C@H]1C(=O)N[C@@H](C)C(=O)O)C(C)C)C(C)C [saralasin],,completely inhibited,inhibition of AEC apoptosis in response to Fas ([1]; cell type not given): 93%
